Laboratory results reported in patent US5654411A, “Process for preparing 4-deoxyerythromycin derivatives” (Abbott Laboratories, priority 1995, dated 1997).

System: smooth muscle strips isolated from rabbit small intestine
Assay: Induction of in vitro rabbit duodenal smooth muscle contraction
Conditions: for EC50: Oryctolagus cuniculus, rabbit duodenum longitudinal muscle, 37° C., pH 7.5, read-out: pED50 (negative logarithm of the concentration producing half of the maximal contraction) (converted); for Relative Potency: relative to erythromycin A = 1.0
Experimental: The compounds of the present invention were tested in vitro for their ability to induce contraction of smooth muscle strips isolated from rabbit small intestine using the following procedure:
Rabbits were sacrificed and 15 cm of duodenum was rapidly removed and placed in ice-cold modified Ringers solution (120 mM sodium chloride, 25 mM sodium bicarbonate, 4.7 mM potassium chloride, 1.25 mM calcium chloride, 1.20 mM magnesium sulfate and 5.6 mM glucose). The longitudinal muscle layer was separated from the circular muscle by blunt dissection and cut into strips of 10×20 mm. Double-folded strips were vertically suspended between two hooks in 10 mL tissue baths with a mechanical preload of 1 g. The upper hook was connected to an […] force transducer, and its displacement was recorded on a Grass polygraph. The tissue baths contained modified Ringers solution at 37° C. and were continuously gassed with 95% oxygen/5% carbon dioxide in order to maintain the pH at 7.5.
After a stabilization period of at least 60 minutes, a contractility dose-response series was performed by adding increasing final concentrations of methacholine (10^-7 M, 10^-6 M and 10^-5 M) in volumes of 100 μL. The bath solutions were replaced at least three times between doses.
After the methacholine dose-response series was completed, a test compound dose response curve was initiated by the same procedure used for the methacholine dose-response series, with at least five concentrations of test compound within the range of 10^-10 M to 10^-4 M. The tissues were washed repeatedly between doses, and the studies were completed by recording the contractile response to 10^-5 M methacholine to ascertain integrity of the muscle preparation. Contractile responses were expressed as percent of maximal contraction. The concentration of test compound which produces half of the maximal contraction (ED50 value) and the negative logarithm of the ED50 value (PED50) were estimated from the dose-response curves.

Compound	EC50	Relative Potency	Endpoint (pED50) could not be obtained, potency in words (footnote a of Table 2)
CC[C@H]1OC(=O)[C@H](C)[C@@H](O[C@H]2C[C@@](C)(OC)C[C@H](C)O2)[C@H](C)[C@@H](O[C@@H]2O[C@H](C)C[C@H](N(C)C)[C@H]2O)[C@@]2(C)CC(C)=C(O2)[C@H](C)[C@@H](O)[C@]1(C)O [Example 1, 8,9-Anhydro-4"-deoxyerythromycin A-6,9-hemiketal]	3.89 nM	363	
CC[C@H]1OC(=O)[C@H](C)[C@@H](O[C@H]2C[C@@](C)(OC)C[C@H](C)O2)[C@H](C)[C@@H](O[C@@H]2O[C@H](C)C[C@H](N(C)C)[C@H]2O)[C@@]2(C)CC(C)=C(O2)[C@H](C)[C@@H](O)[C@H]1C [Example 2, 8,9-anhydro-4"-deoxyerythromycin B-6,9-hemiketal]	0.0055 nM	257,039	
CC[C@H]1OC(=O)[C@H](C)[C@@H](O[C@H]2C[C@@](C)(OC)C[C@H](C)O2)[C@H](C)[C@@H](O[C@@H]2O[C@H](C)C[C@H](NC)[C@H]2O)[C@@]2(C)CC(C)=C(O2)[C@H](C)[C@@H](O)[C@]1(C)O [Example 3, 8,9-anhydro-4"-deoxy-3'-N-desmethyl erythromycin A-6,9-hemiketal]	0.182 nM	7,762	
CC[C@H]1OC(=O)[C@H](C)[C@@H](O[C@H]2C[C@@](C)(OC)C[C@H](C)O2)[C@H](C)[C@@H](O[C@@H]2O[C@H](C)C[C@H](N(C)CC)[C@H]2O)[C@@]2(C)CC(C)=C(O2)[C@H](C)[C@@H](O)[C@]1(C)O [Example 4, 8,9-anhydro-4"-deoxy-3'-N-desmethyl-3'-N-ethylerythromycin A-6,9-hemiketal]	0.00316 nM	199,526	
C#CC[N+](C)(C)[C@H]1C[C@@H](C)O[C@@H](O[C@@H]2[C@@H](C)[C@H](O[C@H]3C[C@@](C)(OC)C[C@H](C)O3)[C@@H](C)C(=O)O[C@H](CC)[C@@](C)(O)[C@H](O)[C@@H](C)C3=C(C)C[C@@]2(C)O3)[C@@H]1O [Example 5, 8,9-anhydro-4"-deoxy-3'-N-propargylerythromycin A-6,9-hemiketal bromide]	22.9 nM	62	
CC[C@H]1OC(=O)[C@H](C)[C@@H](O[C@H]2C[C@@](C)(OC)C[C@H](C)O2)[C@H](C)[C@@H](O[C@@H]2O[C@H](C)C[C@H](NC)[C@H]2O)[C@@]2(C)CC(C)=C(O2)[C@H](C)[C@@H](O)[C@H]1C [Example 6, 8,9-anhydro-4"-deoxy-3'-N-desmethylerythromycin B-6,9-hemiketal]		> 8000	extremely high potency
C#CC[N+](C)(C)[C@H]1C[C@@H](C)O[C@@H](O[C@@H]2[C@@H](C)[C@H](O[C@H]3C[C@@](C)(OC)C[C@H](C)O3)[C@@H](C)C(=O)O[C@H](CC)[C@H](C)[C@H](O)[C@@H](C)C3=C(C)C[C@@]2(C)O3)[C@@H]1O [Example 8, 8,9-anhydro-4"-deoxy-3'-N-propargylerythromycin B-6,9-hemiketal bromide]	50.1 nM	28	
CC[C@H]1OC(=O)[C@H](C)[C@@H](O[C@H]2C[C@@](C)(OC)C[C@H](C)O2)[C@H](C)[C@@H](O[C@@H]2O[C@H](C)C[C@H](NC)[C@H]2O)[C@@]2(C)C[C@H](C)C(O2)[C@H](C)[C@@H](O)[C@]1(C)O [Example 10, 9-deoxo-3'-N-desmethyl-4",6-dideoxy-8-epi-6,9-epoxyerythromycin A]	17.8 nM	79	
C#CC[N+](C)(C)[C@H]1C[C@@H](C)O[C@@H](O[C@@H]2[C@@H](C)[C@H](O[C@H]3C[C@@](C)(OC)C[C@H](C)O3)[C@@H](C)C(=O)O[C@H](CC)[C@@](C)(O)[C@H](O)[C@@H](C)C3O[C@]2(C)C[C@@H]3C)[C@@H]1O [Example 12, 9-deoxo-4",6-dideoxy-8-epi-6,9-epoxy-3'-N -propargylerythromycin A bromide]	23.4 nM	60	
CC[C@H]1OC(=O)[C@H](C)[C@@H](O[C@H]2C[C@@](C)(OC)C[C@H](C)O2)[C@H](C)[C@@H](O[C@@H]2O[C@H](C)C[C@H](N(C)C)[C@H]2O)[C@@]2(C)C[C@@H](C)C(O2)[C@H](C)[C@@H](O)[C@]1(C)O [Example 13, 9-deoxo-4",6-dideoxy-6,9-epoxyerythromycin A]	0.166 nM	8,511	
CC[C@H]1OC(=O)[C@H](C)[C@@H](O[C@H]2C[C@@](C)(OC)C[C@H](C)O2)[C@H](C)[C@@H](O[C@@H]2O[C@H](C)C[C@H](NC)[C@H]2O)[C@@]2(C)C[C@@H](C)C(O2)[C@H](C)[C@@H](O)[C@]1(C)O [Example 14, 9-Deoxo-4',6-Dideoxy-3'-N-Desmethyl-6,9-Epoxyerythromycin A]	70.8 nM	20	
C#CC[N+](C)(C)[C@H]1C[C@@H](C)O[C@@H](O[C@@H]2[C@@H](C)[C@H](O[C@H]3C[C@@](C)(OC)C[C@H](C)O3)[C@@H](C)C(=O)O[C@H](CC)[C@@](C)(O)[C@H](O)[C@@H](C)C3O[C@]2(C)C[C@H]3C)[C@@H]1O [Example 16, 9-deoxo-4",6-dideoxy-6,9-epoxy-3'-N-propargylerythromycin A bromide]	40.7 nM	35	
CC[C@H]1OC(=O)[C@H](C)[C@@H](O[C@H]2C[C@@](C)(OC)[C@@H](O)[C@H](C)O2)[C@H](C)[C@@H](O[C@@H]2O[C@H](C)C[C@H](N(C)C)[C@H]2O)[C@](C)(O)C[C@@H](C)C(=O)[C@H](C)[C@@H](O)[C@]1(C)O [erythromycin A, reference compound]	1410 nM		
